Assay results from patent US20240208898A1, “ENAMINE N-OXIDES: SYNTHESIS AND APPLICATION TO HYPOXIA-RESPONSIVE PRODRUGS AND IMAGING AGENTS” (DANA-FARBER CANCER INSTITUTE, INC., priority 2021, published 2024).

What was measured:
Assay type in all cases: cell-based
A431 cells = assay: Staurosporine release by A431 cells; conditions: 7.5×10^6 A431 cells, 100 μM compound, serum free RPMI, HPLC
Method: Sterilized 2 mL HPLC vials were each charged with a suspension of 7.5×10^6 cells in RPMI (1 mL) and sealed with a cap containing a septum. The vials were charged with only RPMI (1 mL) in the no cell controls. A stock solution of staurosporine enamine N-oxide 37 (10 μL, 10 mM in ethanol; 100 μM final concentration) was then added to each vial. Septa were pierced with an open 22-gauge needle for normoxic conditions. Hypoxic conditions were maintained using nitrogen lines connected to a vacuum gas manifold. The vials were maintained at 37° C. in a water bath and shaken every 15 minutes. At different time points (0, 1, 2, 4, and 8 hours), an aliquot of the cell suspension (100 μL) was removed from each vial and immediately added to acetonitrile (100 μL) containing p-nitrophenol (10 μM) as an internal standard. Quenched samples were then cooled to −20° C. for 1 hour and centrifuged at 10,000×g for 5 minutes at 4° C. The supernatant was collected and analyzed by HPLC (C18 column, 4.6×250 mm, 5 μm particle size, 1 mL/minute flow rate, eluent: gradient 0→20% MeCN/H2O+0.1% TFA (1 minute), gradient 20→40% MeCN/H2O+0.1% TFA (7 minutes), gradient 40→100% MeCN/H2O+0.1% TFA (3 minutes)). Staurosporine was quantified using its absorbance at 280 nm.

A431 or H460 cells = assay: Staurosporine enamine N-oxide cell viability studies (MTT); conditions: compared with AQ4N
Method: A431 or H460 cells were seeded at a density of 12,000-13,000 cells per well in media [100 μL, RPMI supplemented with 5% heat-inactivated human serum (Sigma), penicillin (100 units/mL), and streptomycin (0.1 mg/mL)] in clear 96-well plates. PBS (100 μL) was added to the edge wells. The cells were incubated at 37° C. under ambient atmosphere with 5% CO2. After 24 hours, the media was aspirated and replaced with media [50 μL, RPMI supplemented with 5% HS, penicillin (100 units/mL), and streptomycin (0.1 mg/mL)] containing the staurosporine derivative of interest. For A431 cells, staurosporine or staurosporine derivative treatment concentrations started at 50 μM and were serially diluted 4-fold across nine wells. For H460 cells, staurosporine or staurosporine derivative treatment concentrations started at 100 μM and were serially diluted 4-fold across nine wells. […] After 48 hours, the media was aspirated, the wells were washed once with PBS (130 μL), and the cell viability was determined using the MTT assay. […] The absorbance at 570 nm was measured using a microplate reader (Clariostar Plus, BMG Labtech).
These studies were performed as previously reported (Manley et al., J. Pharmacol. Exp. Ther. 344:368-377 (2013)). […] After 72 hours, cell viability was determined using the MTT assay. […] The absorbance at 570 nm was then measured using a microplate reader (Clariostar Plus, BMG Labtech).

BxPC-3 cells = assay: Western blot of pimonidazole-labeled cells; conditions: 48 h, 10 μM, printed 'until after 1% pO2'
Method: Cells were seeded at a density of 200,000 cells per well in media [2 mL, RPMI supplemented with 5% heat-inactivated human serum (Sigma), penicillin (100 units/mL), and streptomycin (0.1 mg/mL)] in 6-well plates. Cells were incubated at 37° C. under ambient atmosphere with 5% CO2. After 24 hours, the media was aspirated and replaced with media [1 mL, RPMI supplemented with 5% heat-inactivated HS, penicillin (100 units/mL), and streptomycin (0.1 mg/mL)] containing pimonidazole (1 μL, 10 mM in water; 10 μM final concentration). Plates were then incubated at 37° C. under ambient (20% pO2) or oxygenated conditions (5%, 1%, or 0.1% pO2) with 5% CO2 for 48 hours. The oxygenated conditions were maintained using a hypoxia chamber (ProOx C21, Biospherix) in a cell culture incubator. After 48 hours, the media was aspirated, and the cells were washed with PBS (1 mL). PBS (1 mL) was then added to each well and the cells were scraped off with a cell scraper. […] The protein concentration was then determined by BCA assay following the manufacturer's protocol (Pierce). […] The dried pellet was then resuspended in an SDS solution (50 μL, 1% SDS in 50 mM Tris, pH 8.0), and the protein concentration was determined by BCA assay. […] Blots were imaged using a fluorescence scanner (Odyssey CLx, LI-COR Biosciences) and quantified by ImageJ.

SMILES	rate of conversion to staurosporine under hypoxic conditions relative to normoxic (A431 cells) [fold]	hypoxic to normoxic cytotoxicity ratios (HCR) (A431 or H460 cells)	oxygen tension at which apparent half maximal labeling capacity (0.1% pO2) is reached (BxPC-3 cells) [% pO2]
CC[N+]([O-])(/C=C/COC(=O)N1Cc2c(c3c4ccccc4n4c3c3c2c2ccccc2n3[C@@]2(C)O[C@@H]4C[C@@H](NC)[C@H]2OC)C1=O)CC [compound 37, N,N-diethyl enamine N-oxide staurosporine]	~4	compare favorably with and are complementary to those of AQ4N	
O=[N+]([O-])c1nccn1CC(O)CN1CCCCC1 (stereo not drawn) [Pimonidazole]			< 1
